Our source for the Ki, half-life and not cleaved values is PMC7957705 (Molecules, 2021).

One data set deals with T1, human MCH-R1 (Homo sapiens, UniProt Q99705).
T1 construct: expressed in transfected cells
Briefly: MCH-induced cytosolic Ca2+ ion mobilization, antagonist effect. The class given is cell-based. The conditions noted are these: antagonism of MCH-induced cytosolic Ca2+ mobilization; read-out: Ki (functionality, antagonism at MCH-R1). Here is the method:
The functional assay was run onto cells expressing the hMCH-R1 receptor, as described in Wang et al.. In brief, the cells are suspended in DMEM buffer (Invitrogen), then distributed in microplates at a density of 4.104 cells/well. The fluorescent probe (Fluo4 Direct, Invitrogen) mixed with probenecid in Hanks’ Balanced Salt solution (HBSS) (Invitrogen) complemented with 20 mM HEPES (Invitrogen) (pH 7.4) is then added into each well and equilibrated with the cells for 60 min at 37 °C, then 15 min at 22 °C. Then, the assay plates are positioned in a microplate reader (CellLux, PerkinElmer) which is used for the addition of the test compound, reference agonist or HBSS buffer (basal control), and the measurements of changes in fluorescence intensity, which varies proportionally to the free cytosolic Ca^2+ ion concentration. For stimulated control measurements, MCH at 300 nM is added in separate assay wells. The results are expressed as a percentage of the control response to 300 nM MCH. The standard reference agonist is MCH, which is tested in each experiment at several concentrations to generate a concentration-response curve from which its EC50 value is calculated. For the antagonist effect, the results are expressed as a percentage inhibition of the control response to 30 nM MCH, which was added to all tested wells and controls 5 min after the candidate products.

Data set [1] is classed as in vitro ADME. The note with it: plasma. As for the experimental part:
Plasmas from 3 species (including commercially available human healthy donors) were adjusted to pH 7.4 if necessary. Incubations were performed at a concentration of 1 µM of the compound at 37 °C (in the presence of a final concentration of DMSO of 2.5% v/v. The incubations were stopped at 0, 15, 30, 60 and 120 min by methanol. Each time point was run in sextuplets. The sampling plates were then centrifuged (2500 rpm, 45 min, 4 °C) and the supernatants pooled. Samples were analyzed for parent compound by LC-MS/MS. The percentage of parent compound remaining at each time point relative to the 0 min sample is then calculated from LC-MS/MS peak area ratios. Then, the stability in plasma was evaluated by incubating human, rat or mouse plasma with the compound(s) as follows: the product (0.1 µM in TRIS buffer pH 7.4 0.1% BSA) was incubated with the plasma at 37 °C. The disappearance of the product was measured at 15, 45, 120, 240 and 300 min by mass spectrometry. Incubations were carried out in a robot Star (Hamilton France, Villebon-sur-Yvette, France). At each sampling time, 50 µL of the reaction medium was removed and diluted with 100 µL of acetonitrile. After centrifugation (20 min at + 4 °C, 4000 rpm), 75 µL of the supernatants was transferred into a 384 well injection plate. Ten microliters were injected onto UPLC coupled with a XEVO TQS mass spectrometer system (Waters, Milford, MA, USA). The unchanged product is quantified using a reference sample (0.1 µM) prepared during the incubation process. A second reference sample at 0.01 µM is prepared in the same conditions to verify the linearity of the detection method. The peak height (or area) is measured to calculate the half-life of the compound.

A further data set is described as follows: human plasma. The note with it: 37 °C, up to 300 min.

Where two headings read alike, the source gives them in different places. Where a SMILES comes first, the peptide text is derived from it. Bridges are numbered along the chain shown (N, C = ends). Triazole bridges read from a SMILES are 1,4-linked. [ ]: non-standard residue; d: D form. The star is where a group is joined. Benzoyl(4-guanidino) = N=C(N)Nc1ccc(C(=O)*)cc1; Pro(4S-NH2) = N[C@@H]1CN[C@H](C(=O)O)C1; Orn(N3) = [N-]=[N+]=NCCC[C@H](N)C(=O)O; Aha = [N-]=[N+]=NCC[C@H](N)C(=O)O; Cav = NC(N)=NOCC[C@H](N)C(=O)O; Hpra = C#CCC[C@H](N)C(=O)O; hCys = N[C@@H](CCS)C(=O)O; Orn = NCCC[C@H](N)C(=O)O; Pra = C#CC[C@H](N)C(=O)O Where only a bound is given, the exact number is not on record here.

T1 sequence (Q99705 whole entry): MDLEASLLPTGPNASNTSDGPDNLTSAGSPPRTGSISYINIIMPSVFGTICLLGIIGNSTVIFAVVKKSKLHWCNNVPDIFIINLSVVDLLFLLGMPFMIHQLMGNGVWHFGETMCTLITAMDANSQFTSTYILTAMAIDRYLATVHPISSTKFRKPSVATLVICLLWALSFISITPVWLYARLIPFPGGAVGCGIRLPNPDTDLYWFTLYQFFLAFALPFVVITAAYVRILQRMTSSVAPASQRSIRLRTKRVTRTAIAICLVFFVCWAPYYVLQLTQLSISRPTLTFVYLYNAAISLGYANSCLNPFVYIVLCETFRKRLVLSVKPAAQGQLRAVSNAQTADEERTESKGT

For `CSCC[C@@H]1NC(=O)[C@@H](NC(=O)c2ccc(NC(=N)N)cc2)CCC(=O)NCCC[C@@H](C(=O)N[C@@H](Cc2c[nH]c3ccccc23)C(=O)O)NC(=O)[C@@H]2CCCN2C(=O)[C@H](CCON=C(N)N)NC(=O)[C@H](C(C)C)NC(=O)[C@H](CCCNC(=N)N)NC(=O)[C@H](CC(C)C)NC1=O` [GPS13683] ({Benzoyl(4-guanidino)}-EMLRV[Cav]P[Orn]W-OH; lactam 1-8), the Ki at human MCH-R1 was determined as 0.15 nM.

In the case of `CSCC[C@@H]1NC(=O)[C@@H](NC(=O)c2ccc(NC(=N)N)cc2)CCC(=O)NCCC[C@@H](C(=O)N[C@@H](Cc2c[nH]c3ccccc23)C(=O)O)NC(=O)[C@@H]2CCCN2C(=O)[C@H](CCCNC(=N)N)NC(=O)[C@H](C(C)C)NC(=O)[C@H](CCCNC(=N)N)NC(=O)[C@H](CC(C)C)NC1=O` [GPS12744] ({Benzoyl(4-guanidino)}-EMLRVRP[Orn]W-OH; lactam 1-8), the half-life in data set [1] (human) is at least 5 h; in data set [1] (mouse) it was 0.433 ± 0.05 h; in data set [1] (rat), 2.38 ± 0.2 h. In the case of `CSCC[C@@H]1NC(=O)[C@@H](NC(=O)c2ccc(NC(=N)N)cc2)CCCn2cc(nn2)C[C@@H](C(=O)N[C@@H](Cc2c[nH]c3ccccc23)C(=O)O)NC(=O)[C@@H]2CCCN2C(=O)[C@H](CCCNC(=N)N)NC(=O)[C@H](C(C)C)NC(=O)[C@H](CCCNC(=N)N)NC(=O)[C@H](CC(C)C)NC1=O` [GPS14519] ({Benzoyl(4-guanidino)}-[Orn(N3)]MLRVRP[Pra]W-OH; triazole 1-8), the Ki on human MCH-R1 came to 0.43 nM. Regarding `CSCC[C@@H]1NC(=O)[C@@H](NC(=O)c2ccc(NC(=N)N)cc2)CCn2cc(nn2)CC[C@@H](C(=O)N[C@@H](Cc2c[nH]c3ccccc23)C(=O)O)NC(=O)[C@@H]2CCCN2C(=O)[C@H](CCCNC(=N)N)NC(=O)[C@H](C(C)C)NC(=O)[C@H](CCCNC(=N)N)NC(=O)[C@H](CC(C)C)NC1=O` [GPS14517] ({Benzoyl(4-guanidino)}-[Aha]MLRVRP[Hpra]W-OH; triazole 1-8), the Ki on human MCH-R1 was 0.022 nM.

`CSCC[C@@H]1NC(=O)[C@@H](NC(=O)c2ccc(NC(=N)N)cc2)CCC(=O)NCCC[C@@H](C(=O)N[C@@H](Cc2c[nH]c3ccccc23)C(=O)O)NC(=O)[C@@H]2C[C@H](N)CN2C(=O)[C@H](CCCNC(=N)N)NC(=O)[C@H](C(C)C)NC(=O)[C@H](CCCNC(=N)N)NC(=O)[C@H](CC(C)C)NC1=O` [GPS13684] ({Benzoyl(4-guanidino)}-EMLRVR[Pro(4S-NH2)][Orn]W-OH; lactam 1-8): the half-life is at least 5 h in data set [1] (human), 0.433 ± 0.0167 h in data set [1] (mouse) and 2.25 ± 0.15 h in data set [1] (rat).

In the case of `CSCC[C@H](NC(=O)[C@H](CCC(=O)O)NC(=O)c1ccc(NC(=N)N)cc1)C(=O)N[C@@H](CC(C)C)C(=O)N[C@@H](CCCNC(=N)N)C(=O)N[C@H](C(=O)N[C@@H](CCCNC(=N)N)C(=O)N1CCC[C@H]1C(=O)N[C@@H](CCCN)C(=O)N[C@@H](Cc1c[nH]c2ccccc12)C(=O)O)C(C)C` [GPS13669] ({Benzoyl(4-guanidino)}-EMLRVRP[Orn]W-OH), the inhibition constant (Ki) on human MCH-R1 is 300 nM. For `CCSCC[C@@H]1NC(=O)[C@@H](NC(=O)c2ccc(NC(=N)N)cc2)CCC(=O)NCCC[C@@H](C(=O)N[C@@H](Cc2c[nH]c3ccccc23)C(=O)O)NC(=O)[C@@H]2CCCN2C(=O)[C@H](CCCNC(=N)N)NC(=O)[C@H](C(C)C)NC(=O)[C@H](CCCNC(=N)N)NC(=O)[C@H](CC(C)C)NC1=O` [GPS13663] ({Benzoyl(4-guanidino)}-E[hCys](Et)LRVRP[Orn]W-OH; lactam 1-8), the half-life in data set [1] (human) was at least 5 h; in data set [1] (mouse), 0.317 ± 0.0167 h; in data set [1] (rat) it was 1.57 ± 0.05 h. Turning to `CCSCC[C@@H]1NC(=O)[C@@H](NC(=O)c2ccc(NC(=N)N)cc2)Cc2cn(nn2)CC[C@@H](C(=O)N[C@@H](Cc2c[nH]c3ccccc23)C(=O)O)NC(=O)[C@@H]2CCCN2C(=O)[C@H](CCCNC(=N)N)NC(=O)[C@H](C(C)C)NC(=O)[C@H](CCCNC(=N)N)NC(=O)[C@H](CC(C)C)NC1=O` [GPS13671] ({Benzoyl(4-guanidino)}-[Pra][hCys](Et)LRVRP[Aha]W-OH; triazole 1-8), the Ki at human MCH-R1 turned out to be 8 nM.

Turning to `CSCC[C@@H]1NC(=O)[C@@H](NC(=O)c2ccc(NC(=N)N)cc2)Cc2cn(nn2)CCC[C@@H](C(=O)N[C@@H](Cc2c[nH]c3ccccc23)C(=O)O)NC(=O)[C@@H]2CCCN2C(=O)[C@H](CCCNC(=N)N)NC(=O)[C@H](C(C)C)NC(=O)[C@H](CCCNC(=N)N)NC(=O)[C@H](CC(C)C)NC1=O` [GPS14518] ({Benzoyl(4-guanidino)}-[Pra]MLRVRP[Orn(N3)]W-OH; triazole 1-8), the Ki on human MCH-R1 came out at 0.027 nM.

For “Gua-Glu-Met-Leu-Arg-Val-Arg-4-NH2-Pro-Orn-Trp”, the not cleaved result in “human plasma” was “not metabolized at all, 100% of the initial dose found at 300 (5 h)”. On the same count and under the same terms, to “Gua-Glu-Ethionine-Leu-Arg-Val-Arg-Pro-Orn-Trp” belongs “not metabolized at all, 100% of the initial dose found at 300 (5 h)”; to Gua-Glu-Met-Leu-Arg-Val-Arg-Pro-Orn-Trp, “not metabolized at all, 100% of the initial dose found at 300 (5 h)”. On to `CSCC[C@@H]1NC(=O)[C@@H](NC(=O)c2ccc(NC(=N)N)cc2)CCC(=O)NCCC[C@@H](C(=O)N[C@@H](Cc2c[nH]c3ccccc23)C(=O)O)NC(=O)[C@@H]2CCCN2C(=O)[C@H](CCCNC(=N)N)NC(=O)[C@H](Cc2ccc(O)cc2)NC(=O)[C@H](C(C)C)NC(=O)[C@H](CCCNC(=N)N)NC(=O)[C@H](CC(C)C)NC1=O` [GPS13695] ({Benzoyl(4-guanidino)}-EMLRVYRP[Orn]W-OH; lactam 1-9), for which, on human MCH-R1, the Ki came out at 0.13 nM.

One may read the Ki as the dissociation constant of the complex between target and ligand, obtained from inhibition or displacement. One may read the half-life as how long it takes for the measured level to halve. Higher therefore signals slow loss.
